Measured values as given in US4954156A, “N,N-dihalo-2-imidazolidinones and N-halo-2-oxazolidinones as urease and nitrification inhibitors” (Tennessee Valley Authority, priority 1989, dated 1990).
Several values for one entry are separate records, joined by “and”; a condition that tells them apart may be missing. Equal entries are not always repeated.

Legend:
[1] = target: purified Jack Bean urease (Canavalia ensiformis, UniProt P07374); experiment: Aqueous system (pH stat) urease inhibition test; type: biochemical; details: 25° C
purified Jack Bean urease, sequence (P07374 whole entry, looked up): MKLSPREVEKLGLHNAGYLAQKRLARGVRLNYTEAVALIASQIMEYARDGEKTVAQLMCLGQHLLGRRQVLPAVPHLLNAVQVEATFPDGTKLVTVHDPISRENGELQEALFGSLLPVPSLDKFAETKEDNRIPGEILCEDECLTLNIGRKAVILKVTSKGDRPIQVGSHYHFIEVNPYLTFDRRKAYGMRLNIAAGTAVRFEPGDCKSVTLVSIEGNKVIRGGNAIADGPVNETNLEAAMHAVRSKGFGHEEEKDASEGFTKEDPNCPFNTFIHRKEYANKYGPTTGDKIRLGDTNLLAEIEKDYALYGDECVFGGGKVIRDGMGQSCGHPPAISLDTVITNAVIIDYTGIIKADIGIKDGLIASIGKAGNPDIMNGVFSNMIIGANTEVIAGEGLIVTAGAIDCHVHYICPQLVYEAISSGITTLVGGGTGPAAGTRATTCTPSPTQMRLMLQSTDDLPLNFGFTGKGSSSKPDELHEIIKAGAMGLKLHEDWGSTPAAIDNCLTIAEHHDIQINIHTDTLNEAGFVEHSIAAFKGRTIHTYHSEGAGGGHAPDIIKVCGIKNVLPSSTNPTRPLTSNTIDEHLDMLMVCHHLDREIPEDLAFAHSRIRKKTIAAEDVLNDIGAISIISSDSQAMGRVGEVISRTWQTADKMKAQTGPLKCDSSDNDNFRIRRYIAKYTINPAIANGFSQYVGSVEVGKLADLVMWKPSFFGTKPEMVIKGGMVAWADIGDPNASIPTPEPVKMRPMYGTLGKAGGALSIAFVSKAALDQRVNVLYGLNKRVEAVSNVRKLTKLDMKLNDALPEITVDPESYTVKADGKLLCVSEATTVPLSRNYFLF
Procedure: (§1) Embodiment 1: Urease activity of inhibitor test compounds may be evaluated either in aqueous or in soil systems. When aqueous systems are used, urea plus a test compound with possible urease inhibition activity and relatively pure urease enzyme are incubated together to determine the effects of the test compound on urease-catalyzed hydrolysis of urea. When soil systems are used, urea and the test compound are added to moist soil, and the urease enzyme is supplied from the soil. The main disadvantage of using soil systems is that the true activity of test compounds may be masked because of reactions between the test compound and soil. Thus, basic studies for understanding chemical structure-activity relationships are usually done in aqueous systems.
Aqueous System (pH Stat) Test Procedure: The aqueous system urease inhibition tests were conducted at 25° C using purified Jack Bean urease enzyme, 50,000-80,000 units per gram, a unit of urease will liberate 1 umole of NH3 from urea per minute at pH 7.0 at 25° C.
An appropriate amount of inhibitor [such as 37.0 uL (microliters) of a 1.169×10^(-3) M (moles/liter) inhibitor solution] and 100 uL of a solution of 13.9130 mg Jack Bean urease enzyme in 10.00 mL of water were diluted to 25.00 mL. This combined solution was allowed to sit undisturbed at 23° C. for twenty (20) minutes. Then 20.0 uL of a preservative solution was added to prevent degradation of the urease enzyme during the course of the experiment. The preservative solution contained 5.655×10^-4 moles/liter ethylenediaminetetraacetic acid (disodium salt) and 1.166×10^-3) moles/liter dithiothreitol.
Immediately after the addition of the preservative solution to the inhibitor/urease solution, 800 uL of a 0.1246 M urea solution was added and a computer assisted titrimeter was started. This titrimeter maintained a constant pH of 6.97 during the course of the experiment by neutralizing the ammonia (resulting from urease hydrolysis of urea) with 0.01142 M hydrochloric acid (HCl). The volume (measured to 0.001 mL) of HCl added was automatically recorded every 15 seconds for up to 20.0 minutes or until a total volume of 2.500 mL of HCl was added.
Experiments also were conducted without inhibitor (blank) and with the inhibitor PPDA for comparison. The experiments were replicated, and the percent inhibition for each of the inhibitors at the various concentrations was calculated as follows:
% inhibition=(kinhibitor /kblank)×100 (4)
where kinhibitor and kblank are the average rates of HCl addition for the inhibitor and blank experiments, respectively. The rates of HCl addition were calculated by linear regression of the titration curves.

[2] = system: nitrification of ammonium nitrogen in soil; experiment: Soil nitrification inhibition test (Mountainview silt loam, banded); details: for % inhibition (nitrification) / Net mg NO2N / Net mg NO3N: 25° C, 410 mg urea + 41 mg inhibitor; for Nitrite accumulation in the soil: during the 5 weeks incubation, greater than with dicyandiamide
Procedure: Embodiment 2: The N-Halamine compounds were tested for nitrification inhibition using the soil testing procedure described below.
Mountainview silt loam soil was screened through a 2 mm sieve. Plexiglas containers (8×8×6 cm) were packed half full with the soil and packed to a bulk density of 1.0 g/cm^3 and wetted to field capacity (approximately 20 weight percent moisture). The urea 410 mg per container) and inhibitor (41 mg per container) were added in a narrow band (0.5 cm wide X 6 cm long), and additional soil was added to fill the containers. The total amount of dry soil added was 384 g. The containers were incubated at 25° C. During incubation the containers were checked periodically for moisture loss and additional water added as needed to maintain moisture levels.
The individual containers were removed from the incubator at 1, 2, 3, 4, and 5 week intervals. After removal from the incubator the contents of the container were transferred to a plastic bag and thoroughly mixed. A 10-g sample of soil (dry basis) was taken from the bag and extracted with 100 ml of 2 N KCL. The extract was filtered through Whatman #41 filter paper and refrigerated until analyzed. Samples were analyzed for NO3-N- NO2-N- and urea-N using a colorimetric procedure. Some samples also were analyzed for NH4-N.
The percent nitrification inhibition was calculated according to the method of Bundy and Bremner [G. L. Bundy and J. M. Bremner, Soil Sci. Soc. Am. Proc. 37, 396-398 (1973)]
% nitrification inhibition=[(C-S)/C]×100
where C=net amount of NO3-N produced in the control (no inhibitor added), and S=net amount of NO3-N produced in the inhibitor treated sample.
^a Concentrations are in net mg/container. All containers had 384 g
soil (dry), 410 mg urea (188.6 mg N) and 41 mg inhibitor. Samples were
extracted 10 g → 100 mls 2N KCl. The formulas used for calculation
where C = net NO3N produced in control (no inhibitor), S = net
NO3N produced in inhibitor treated sample, net NO3N =
(NO3N) - (soil NO3N), and net NO2N = (NO2N) - (soil
NO2N). Values are averages of two replicate samples.

[3] = system: soil urease (urease-active Hastings silt loam soil); experiment: Banded soil system urease inhibition test (Hastings silt loam); details: 410 mg urea + 41 mg inhibitor
Procedure: as §1
Soil System Test Procedure: The soil system test procedure used was a modification of the previous procedures of other researchers L. A. Douglas and J. M. Bremner, Soil Biol. Biochem. 3, 309-315 (1971) and J. M. Bremner and R. L. Mulvaney, "Urease Activity in Soils," Soil Enzymes 5, R. G. Burns, editor, Academic Press, 149-195 (1978)]. In this modified procedure powdered mixtures of urea and test compounds were applied in narrow bands in the soil rather than being mixed throughout the soil. The banded configuration also results in concentration gradients of urea, urea hydrolysis products, test compounds, and test compound decomposition products similar to those in the immediate vicinity of urea granules containing the test compounds. Another advantage of the banded configuration compared with mixing throughout the soil is that slightly soluble test compounds can be easily band applied, whereas it is difficult to achieve a known degree of mixing of a small quantity of slightly soluble test compound with soil. The banded configuration also enables testing for urease inhibition under realistic soil conditions prior to the development of techniques for cogranulating a wide range of test compounds with urea.
A detailed description of the banded soil testing procedure follows. Urease-active soil (Hastings silt loam) was moistened to a moisture content of 20 percent dry weight basis) and preincubated at room temperature for two days. Plexiglas containers (6×6×6 cm) were half filled with soil and packed to a bulk density of 1.0 g/cm . Urea (410 mg) or urea (410 mg) plus inhibitor (41 mg, thoroughly mixed with the urea) was distributed in a narrow band about 0.5 cm wide and 6 cm long on the soil surface. The containers then were filled with soil, again packing to a bulk density of 1.0 g/cm^3. The containers were incubated at 25° C. for the desired reaction period, after which the containers were frozen to about -5° C. to stop urea hydrolysis. Immediately prior to extracting the remaining urea from the soil, said soil was allowed to thaw. Soil from each container was thoroughly mixed, and a 10-g sample was extracted with 100 ml of 2 M KCl containing phenylmercuric acetate to prevent urea hydrolysis during handling [L. A. Douglas and J. M. Bremner, Soil. Sci. Soc. Am. Proc. 34, 859-862 (1970)]. Urea in the extracts was determined colorimetrically as a measure of unhydrolyzed urea and the results expressed as percent unhydrolyzed urea-N.
^a The plexiglas containers measured 6 × 6 × 6 cm.
Hastings silt loam soil was utilized and packed to a bulk density of 1
gm/cm^3 dry basis. The soil was wet to near field capacity (20%
moisture) and 260 g of wetted soil (216 g dry soil) was added per
container. The containers were packed half full, urea and inhibitor were
added, and the remaining soil was added. The amount of urea added = 410 m

| SMILES | % inhibition (nitrification) ([2]; 1 week) | Net mg NO2N ([2]; 1 week) | Net mg NO3N ([2]; 1 week) | % inhibition (nitrification) ([2]; 2 weeks) | Net mg NO2N ([2]; 2 weeks) | Net mg NO3N ([2]; 2 weeks) | % inhibition (nitrification) ([2]; 3 weeks) | Net mg NO2N ([2]; 3 weeks) | Net mg NO3N ([2]; 3 weeks) | % inhibition (nitrification) ([2]; 4 weeks) | Net mg NO2N ([2]; 4 weeks) | Net mg NO3N ([2]; 4 weeks) | % inhibition (nitrification) ([2]; 5 weeks) | Net mg NO2N ([2]; 5 weeks) | Net mg NO3N ([2]; 5 weeks) | Nitrite accumulation in the soil [2] | % unhydrolyzed urea-N ([3]; 3 days incubation at 25° C) | PPM urea-N ([3]; 3 days incubation at 25° C) | % unhydrolyzed urea-N ([3]; 6 days incubation at 25° C) | PPM urea-N ([3]; 6 days incubation at 25° C) | further results |
| --- | --- | --- | --- | --- | --- | --- | --- | --- | --- | --- | --- | --- | --- | --- | --- | --- | --- | --- | --- | --- | --- |
| CC1(C)N(Cl)C(=O)N(Cl)C1(C)C [A, 1,3-dichloro-4,4,5,5-tetramethyl-2-imidazolidinone] |  |  |  |  |  |  |  |  |  |  |  |  |  |  |  |  |  |  |  |  | % urease inhibition ([1]; inhibitor 1.440 x 10^-8 moles/experiment): 86%; % urease inhibition ([1]; inhibitor 2.160 x 10^-8 moles/experiment): 95%; % urease inhibition ([1]; inhibitor 4.320 x 10^-8 moles/experiment): 100%; percent nitrification inhibition ([2]; separate experiment (Examples VII, IX): sampled only at end of 5-week incubation, no dicyandiamide comparison): 41.8% |
| CC1(C)N(Br)C(=O)N(Br)C1(C)C [AB, 1,3-dibromo-4,4,5,5-tetramethyl-2-imidazolidinone] | 100.0% | -0.05 mg/container | 0.0 mg/container | 100.0% | 0.04 mg/container | 0.0 mg/container | 100.0% | 0.03 mg/container | 0.0 mg/container | 100.0% | 0.82 mg/container | 0.0 mg/container | 98.3% | 2.63 mg/container | 3.1 mg/container | well within plant tolerance levels | 70.59% and 70.6% | 62.5 PPM | 15.02% and 15.0% | 13.3 PPM |  |
| N#CN=C(N)N [Dicyandiamide, dicyandiamide, reference compound] | 78.2% | 0.17 mg/container | 4.6 mg/container | 88.6% | 0.19 mg/container | 17.7 mg/container | 87.4% | 0.01 mg/container | 22.7 mg/container | 87.4% | 0.01 mg/container | 22.7 mg/container | 90.0% | -0.02 mg/container | 18.4 mg/container |  |  |  |  |  | % inhibition (nitrification) ([2]; 5 weeks, listed as dicyandiamide): 90% |
| CC1(C)COC(=O)N1Cl [I, 3-chloro-4,4-dimethyl-2-oxazolidinone] | 74.4% | 0.28 mg/container | 5.4 mg/container | 68.9% | 0.49 mg/container | 48.4 mg/container | 4.9% | 0.07 mg/container | 171.3 mg/container | -2.8% | 0.02 mg/container | 185.5 mg/container | -1.5% | -0.01 mg/container | 187.4 mg/container |  | 82.45% and 82.4% | 73.0 PPM | 56.47% and 56.5% | 50.0 PPM | % inhibition (nitrification) ([2]; 5 weeks, listed as 3-chloro-4,4-dimethyl-2-oxazolidinone): 0%; nitrification inhibition effect ([2]; after three weeks): almost completely exhausted |
| CC1(C)COC(=O)N1Br [IB, 3-bromo-4,4-dimethyl-2-oxazolidinone] | 100.0% | -0.02 mg/container | 0.0 mg/container | 100.0% | 0.06 mg/container | 0.0 mg/container | 100.0% | 0.12 mg/container | 0.0 mg/container | 100.0% | 0.52 mg/container | 0.0 mg/container | 99.6% | 2.64 mg/container | 0.8 mg/container | well within plant tolerance levels | 65.51% and 65.5% | 58.0 PPM | 10.05% and 10.0% | 8.9 PPM | % inhibition (nitrification) ([2]; 1 week, listed as 3-bromo-4,4-dimethyl-2-oxazolidinone): 100% |
| NP(N)(=O)Oc1ccccc1 [PPDA, Phenyl phosphorodiamidate, reference compound] |  |  |  |  |  |  |  |  |  |  |  |  |  |  |  |  | 94.31% and 94.3% | 83.5 PPM | 58.73% and 58.7% | 52 PPM | % urease inhibition ([1]; inhibitor 0.108 x 10^-8 moles/experiment): 99%; % urease inhibition ([1]; inhibitor 0.216 x 10^-8 moles/experiment): 100% |
